Entries after “also recorded” stand apart in the source; their conditions may differ. Read-outs that look alike come from different tables or passages of the source.

This is an account of results in publication PMC10794345, “Analysis of vascular disruption in zebrafish embryos as an endpoint to predict developmental toxicity” (Archives of Toxicology, 2023).

Data set [1] has as its system zebrafish embryos (wild-type strain OBI/WIK). Put plainly: ISV inhibition (angiogenesis) by video subtraction in wildtype zebrafish embryos. In kind it is in vivo, zebrafish (D. rerio). The following applies: for IC50: Danio rerio, ± 95% confidence intervals, read-out: IC50 of ISV inhibition. As for the experimental part:
A wild-type adult zebrafish strain (D. rerio, strain OBI/WIK, generation F3), originating from an in-house cross of zebrafish strains UFZ-OBI and WIK, was used for all experiments. The Tg(kdr:EGFP) strain was kindly provided by the University of Jena. Fish were fed twice daily with dry food (SDS-400, Special Diets Services, Essex England) and once daily with Artemia sp. […] Spawning trays were inserted 4–6 h before the end of the light cycle. The following day, spawning was initiated by the onset of light and eggs were collected within 1 h. Exposure in all experiment was ceased at 96 hpf.
(§1) Exposure was conducted in rectangular 96-well microplates (Clear Polystyrene, flat bottom, Uniplate, Whatman, GE Healthcare) covered by a lid with a test volume of 400 µL of exposure media. For each replicate one embryo per well and 16 wells per concentration were assessed. Experiments were performed with at least two replicates on independent days and breeding.
To determine the number of ISVs in the trunk region, high-resolution images of 96 hpf-old zebrafish embryos were recorded using a Leica DM6B-Z microscope (Leica, Wetzlar, Germany) attached to the VAST imaging system, and a camera (Leica DFC9000 sCMOS, objective: HC APO L U-V-I 20x/0.50 WATER UV). A series of 20 images with a frame rate of 20 images per second and a 2 × 2 pixel binning was recorded in autofocus mode for each embryo.
A series of MATLAB scripts (Supplement File ‘Workflow 3.m’ and ‘Workflow 4.m’) was used to convert the image series into a video and to visualize the blood vessel by applying a video subtraction approach (Figure SI1). Briefly, each video frame was subtracted from the average image of the whole image sequence and converted to a binary image by applying a Gaussian blur (σ = 5) and a threshold of 0.025 to obtain optimal contrast in binary images. Subsequently, the sum of all binary images was calculated. Due to movement of the blood cells the subtraction approach removed all parts from the image which were not moving resulting in an image of the blood vessels. This binary image of the blood vessel network in the zebrafish embryo tail was then processed with the FishInspector annotation software (version 1.70). […] The number of ISVs was obtained by application of a KNIME workflow to FishInspector annotation files. Subsequently concentration–response analysis was conducted using a KNIME workflow. The coefficient of variation (CV) of controls was calculated for both the subtraction and the fluorescence-based method by dividing the standard deviation of individual embryos with the control mean: CVControl=SD/Mean.
The assessment of lethality and morphological features was based on the percentage of embryos affected. Therefore, morphological endpoints were dichotomized, i.e. feature metrics were converted to the percentage of embryos deviating from controls. An embryo was considered to deviate when it was outside 1.5-fold of the standard deviation range of the mean of the control group. The control mean was determined by pooling control embryos across all experiments (n = 160) (available at git.ufz.de). For heart rate and angiogenesis (number of ISVs) the analysis was based on normalized values, i.e. for each experiment the values of the treatment were divided by the control value. The experiments were designed to calculate effect concentrations based on modelled curve fits. Different concentrations were used in at least two independent replicates, with means of each replicate based on the exposure of 16 different embryos per concentrations. Effect concentration were only modeled when three conditions were met. […] (2) The Akaike information criterion (AIC) for the log-logistic model was lower than the AIC for a linear model with slope 0 (lower p values for the letter would indicate that there is no trend in the data).

The nature of data set [2]: Lethality of zebrafish embryos at 96 hpf. In kind it is in vivo, zebrafish (D. rerio). The following applies: OBI/WIK wild-type, zebrafish, in vivo, other: immersion of embryos in exposure media, 3–96 hpf exposure; ± 95% confidence intervals. As for the experimental part: as §1, with “Fertilized and normally developed embryos were selected according to Kimmel et al. ([1995]) with a dissection microscope (Olympus SZx7-ILLT) at 1 hpf. Depending on experiment, exposure was started within 2–3 h post-fertilization (16–128 cell stages) or at 24 hpf. Exposure” for “Exposure”
(§2) Concentration–response curves were fitted for lethality, heart rate, morphological features as previously described (Teixidó et al. [2019], [2022]). The assessment of lethality and morphological features was based on the percentage of embryos affected. Therefore, morphological endpoints were dichotomized, i.e. feature metrics were converted to the percentage of embryos deviating from controls. An embryo was considered to deviate when it was outside 1.5-fold of the standard deviation range of the mean of the control group. The control mean was determined by pooling control embryos across all experiments (n = 160) (available at git.ufz.de). For heart rate and angiogenesis (number of ISVs) the analysis was based on normalized values, i.e. for each experiment the values of the treatment were divided by the control value. The experiments were designed to calculate effect concentrations based on modelled curve fits. Different concentrations were used in at least two independent replicates, with means of each replicate based on the exposure of 16 different embryos per concentrations. Effect concentration were only modeled when three conditions were met. (1) The Tukey trend test based on the R package "tukeytrend" (Schaarschmidt et al. [2022]) was deriving a maximum p-value of 0.05. (2) The Akaike information criterion (AIC) for the log-logistic model was lower than the AIC for a linear model with slope 0 (lower p values for the letter would indicate that there is no trend in the data). (3) We calculated effect concentrations only if at least 30% of embryos for that endpoint were affected in at least one exposure concentration of (for normalized data) a reduction or increase by 30% was observed.

The test system of data set [3] is zebrafish embryos (wild-type strain OBI/WIK). Put plainly: Lethality of zebrafish embryos at 96 hpf. Format: in vivo, zebrafish (D. rerio). The following applies: embryos exposed from 24 hpf, compared to exposure from 3 hpf. How it is done: as §1, with “Fertilized and normally developed embryos were selected according to Kimmel et al. ([1995]) with a dissection microscope (Olympus SZx7-ILLT) at 1 hpf. Depending on experiment, exposure was started within 2–3 h post-fertilization (16–128 cell stages) or at 24 hpf. Exposure” for “Exposure”
as §2

The test system of data set [4] is early life stage zebrafish. The following applies: ref Tal et al. [2014]; read-out: EC50 for decreased ISV length; cited from earlier work.
For data set [5], the system named is zebrafish embryos (wild-type strain OBI/WIK). The data set is described as follows: Morphological features and heart rate by automated imaging (VAST/FishInspector) at 96 hpf. Format: in vivo, zebrafish (D. rerio). The following applies: 96 hpf; listed as VPA. How it is done: Automated imaging of zebrafish developmental phenotypes was conducted with the VAST BioImager (Union Biometrica, Gees, Belgium (Pardo-Martin et al. [2010]; Pulak [2016])) equipped with a large particle sampler (LP sampler, Union Biometrica). Lateral and dorsoventral images were obtained at 10 µm resolution at 96 hpf. Prior to imaging, all embryos were anesthetized by adding 20 µl tricaine solution ([…] tricaine, TRIS 26 mM, pH 7.5 ± 0.1) to each well of the microplate. Images were processed with an amended version (1.70, available via https://codebase.helmholtz.cloud/ufz/tb3-cite/biotox/FishInspector) of the FishInspector imaging software (Teixidó et al. [2019]). The FishInspector software allows to automatically annotate morphological features including body contour, eye, lower mouth tip, pericard, otoliths, notochord, swimbladder, and yolk and to calculate diverse metrics such as feature length, size, curvature indices, or angle between feature-connecting lines. In contrast to the previously published version, FishInspector 1.70 detects morphological features based on a deep learning approach using the Matlab Neural Network Toolbox and Matlab Image Processing Toolbox (Mathworks, Natick, […]). In addition, metric calculation was included into the software, and meta information such as test compound, exposure window or test concentration was associated to each image using a microplate layout file. To facilitate training of the models, two additional programs were generated in Matlab including FishTrainer 0.9 (for training of semantic segmentation models of structural features) and FishClassificator 0.9 (for training of position classes to be used in automated flipping of images) available via same repository as FishInspector software. For image training, image size was adjusted to 450 × 300 pixel to reduce computing time. This resolution was sufficient to detect the selected features (data not shown). For training of the deep learning models, approximately 3000 previously annotated images (Teixidó et al. [2022]) were used. The automated annotations were corrected by the user in the event that they were not adequately detecting visible structures. User-bias was avoided by a blinded assessment of images.
FishInspector provided a JSON file corresponding to each image file containing the coordinates of all features and the applied smoothing factor. All images and videos used for this publication can be found at the BioImage Archive S-BIAD954 (https://www.ebi.ac.uk/biostudies/bioimages/studies/S-BIAD954). For each image, a csv file was generated containing calculated metrics. The software automatically provides a summary table containing metrics r of individual embryos. […] The analyzed file includes endpoint names based on the FishInspector software. […]

With `Clc1ccc(Nc2nnc(Cc3ccncc3)c3ccccc23)cc1` [PTK787], the values for the IC50 in data set [1] (3–96 hpf exposure) and in data set [1] (24–96 hpf exposure) were 90 ± 40 nM and 140 ± 30 nM, respectively. Besides, in data set [2], the 50% lethal concentration (LC50) – broadly, the concentration that kills 50% of the test population – is 680 ± 510 nM. Besides, the “Mortality (in words)” value in data set [3] was “no”. Further, in data set [4], the EC50 (commonly the concentration giving half of the maximal effect) is 170 nM.
With `CCCC(CCC)C(=O)O` [Valproic acid], the “Effect on ISV formation (in words)” value in data set [1] (tested concentration range up to 800 µM, negative control, listed as VPA) is “No effect; also recorded: no inhibition of ISVs formation was observed”. The “Morphological malformations (in words)” value in data set [5] is “craniofacial malformations were observed; also recorded: changes in head and jaw structures”.
